Entries after “also recorded” stand apart in the source; their conditions may differ.
Columns and labels:
Type in all cases: in vivo, mice
MnPO^nNOS neurons = assay: Drinking assays with chemogenetic inhibition of MnPO^nNOS neurons by CNO; settings: hM4Di in MnPO^nNOS, CNO injection 10 mg/kg
Experimental: For water-restriction experiments, animals were provided with 1 mL of water daily. For food restriction experiments, animals were provided 0.5 pellets/20 g body weight daily. All assays were performed in a modified lickometer as described previously^[35] or Biodaq monitoring system (Research Diets Inc). For all photometry assays, animals were acclimatized for 10-15 min in the lickometer cage before stimuli were given.
Long-term access assays: Optogenetic Testing—For FIGS. 1L-N and FIGS. 7L-O, satiated mice were given ad libitum access to water for 20 min with photostimulation. Photostimulation was delivered for 1-s followed by 3-s intervals throughout the behavioral sessions. For FIGS. 2J-M and FIGS. 11C-E, mice were given access to water for 20 min after 24 h water-restriction, and photostimulation was delivered for the first 10 min. For feeding assays (FIGS. 2J-M), animals were single-housed in Biodaq cages after 24 h food-restriction, and chow intake was measured for 20 min with or without light stimulation. For acute inhibition experiments, mice were given access to 150 mM NaCl (FIGS. 5D-E, FIGS. 13E-F), water (FIGS. 1L-N, FIGS. 7L-O, FIGS. 13A-D, FIGS. 13G-H) for 20-30 min after 24 h water-restriction or 300 mM sucrose (FIGS. 1L-N, FIGS. 7L-O) after food-restriction. For all acute inhibition experiments, CNO was injected at 10 mg/kg body weight, 30 min prior to the start of the behavior session. For acute activation experiments, CNO was injected at 1 mg/kg body weight (FIGS. 12L-M), 30 min prior to the start of the behavior session. For FIG. 3A, FIGS. 9A-C, and FIG. 13L, water or saline access was provided for 30 min after 24 hours of water restriction. For FIGS. 4A-B, water or HydroGel (ClearH2O) in a cup was provided for 30 min after 24 and 36 hours of water restriction, respectively. The weight of the cup was measured before and after the behavior session. For FIGS. 4K-L, 0.5 pellets of chow was provided for 30 min after 24 h food-restriction. The entire session was recorded using a camera at 30 fps and ingestion episodes were manually annotated. […]

mCherry control animals = assay: mCherry controls for acute inhibition (CNO without hM4Di)
Experimental: Long-term access assays: Optogenetic Testing—For FIGS. 1L-N and FIGS. 7L-O, satiated mice were given ad libitum access to water for 20 min with photostimulation. Photostimulation was delivered for 1-s followed by 3-s intervals throughout the behavioral sessions. For FIGS. 2J-M and FIGS. 11C-E, mice were given access to water for 20 min after 24 h water-restriction, and photostimulation was delivered for the first 10 min. For feeding assays (FIGS. 2J-M), animals were single-housed in Biodaq cages after 24 h food-restriction, and chow intake was measured for 20 min with or without light stimulation. For acute inhibition experiments, mice were given access to 150 mM NaCl (FIGS. 5D-E, FIGS. 13E-F), water (FIGS. 1L-N, FIGS. 7L-O, FIGS. 13A-D, FIGS. 13G-H) for 20-30 min after 24 h water-restriction or 300 mM sucrose (FIGS. 1L-N, FIGS. 7L-O) after food-restriction. For all acute inhibition experiments, CNO was injected at 10 mg/kg body weight, 30 min prior to the start of the behavior session. For acute activation experiments, CNO was injected at 1 mg/kg body weight (FIGS. 12L-M), 30 min prior to the start of the behavior session. […] The weight of the cup was measured before and after the behavior session. […] The entire session was recorded using a camera at 30 fps and ingestion episodes were manually annotated.

SFO^nNOS neurons = assay: Salt/Mannitol loading with fiber photometry of SFO^nNOS/MnPO^nNOS neurons and drinking
Experimental: Salt/Mannitol Loading Experiments: 150 μL/300 μL of 2 M NaCl or 300 μL of 2 M Mannitol was injected intraperitoneally at the end of the acclimatization period. For FIGS. 1P-T and FIGS. 7P-S, CNO or vehicle (water) was injected 10 min prior to NaCl/Mannitol injection. We measured bulk fluorescence signals using fiber photometry as previously described^[26]. Briefly, 490 nm and 405 nm LEDs ([…] and […]) were collimated and delivered to the brain. The light intensity was kept less than 100 μW during all recordings. The fluorescence signal was then focused onto a femtowatt photoreceiver (Newport, Model 2151). The modulation and demodulation were done with an RP2.1 real time processor (Tucker-Davis Technologies) running custom software. The licks from the lickometer were simultaneously recorded as real-time TTL signals to the RP2.1. Fluorescence changes were analyzed using custom MATLAB (MathWorks) code as described previously^[26]. Data were extracted and subjected to a low pass filter at 1.8 Hz. A linear function was used to scale up the 405 nm channel signal to the 490 nm channel signal to get the fitted 405 nm signal. The resultant ΔF/F was calculated as (raw 490 nm signal-fitted 405 nm signal)/(fitted 405 nm signal). For brief access tests, the Area Under Curve (ΣΔFduring) was quantified by integrating the fluorescence signals during the bout. For all bouts, the mean fluorescence for 30 s prior to the first lick was calculated and subtracted from the entire session. ΔF changes (ΔFpost-ΔFpre) were calculated by subtracting the mean fluorescence signal during the 2-s period before the first lick from the mean signal during the 2-s at 1 min after the bout. For displaying traces, the fluorescence data was time-binned by a factor of 2.5 times the sampling frequency and down-sampled to 1 Hz. For long-term tests, the Area Under Curve was calculated for 2.5 min after the start of the bout. […] For […]), the first bout at the start of the session and the last bout within 10 min of access were used. The AUC for the PSTHs were calculated during the first or the last 15 seconds.

[1] = GCaMP6s fiber photometry, MnPO^nNOS inhibited by CNO

SMILES: C[N+]1([O-])CCN(C2=Nc3cc(Cl)ccc3Nc3ccccc32)CC1 [CNO, clozapine-N-oxide]
- SFO^nNOS-stimulated water intake (MnPO^nNOS neurons; SFO^nNOS photostimulation): severely suppressed water consumption; also recorded: severely reduced
- sucrose (300 mM) consumption (MnPO^nNOS neurons; food-restricted animals): did not decrease sugar; also recorded: did not suppress sucrose consumption
- dehydration-induced water intake (MnPO^nNOS neurons; water-restricted animals): severely suppressed water consumption; also recorded: severely reduced
- intake after water or food-restriction (mCherry control animals; AAV-DIO-mCherry in the MnPO of nNOS-Cre animals, 5-s brief access): showed no reduction
- saline or water drinking, CNO vs vehicle (mCherry control animals; mCherry controls in MnPO^GLP1r, water deprived, 30 min): No significant difference
- calcium increases / activity of SFO^nNOS neurons by mannitol-induced osmotic stress (SFO^nNOS neurons; [1]): unaffected; also recorded: without changing the activity
- calcium increases in SFO^nNOS neurons by NaCl-induced osmotic stress (SFO^nNOS neurons; [1]): unaffected
- drinking behavior after Mannitol injection (SFO^nNOS neurons; hM4Di in MnPO^nNOS, CNO 10 min prior to intraperitoneal Mannitol): intensely suppressed drinking responses; also recorded: drastically suppressed drinking behavior
- drinking behavior after NaCl injection (SFO^nNOS neurons; hM4Di in MnPO^nNOS, CNO 10 min prior to intraperitoneal NaCl): intensely suppressed drinking responses; also recorded: drastically suppressed drinking behavior

Source: US10960084B2, “Modulation of fluid intake” (California Institute of Technology, priority 2018, dated 2021)
